Source: US20230373934A1, “ANDROGEN RECEPTOR MODULATORS AND METHODS FOR THEIR USE” (ESSA Pharma, Inc., priority 2022, published 2023)

The molecules below were run against T1, androgen receptor (AR) (Homo sapiens, UniProt P10275, T878A) (assay: Androgen-induced PSA-luciferase assay, Luciferase Assay A (LNCaP transiently transfected with PSA (6.1 kb)-luciferase reporter)). Details: LNCaP cells, 1 h pretreatment, R1881 (1 nM) 24 h, read-out: PSA-Luc IC50 Range.
T1 construct: endogenous in cells; host or cells: LNCaP
T1 sequence (P10275 1-920 T878A): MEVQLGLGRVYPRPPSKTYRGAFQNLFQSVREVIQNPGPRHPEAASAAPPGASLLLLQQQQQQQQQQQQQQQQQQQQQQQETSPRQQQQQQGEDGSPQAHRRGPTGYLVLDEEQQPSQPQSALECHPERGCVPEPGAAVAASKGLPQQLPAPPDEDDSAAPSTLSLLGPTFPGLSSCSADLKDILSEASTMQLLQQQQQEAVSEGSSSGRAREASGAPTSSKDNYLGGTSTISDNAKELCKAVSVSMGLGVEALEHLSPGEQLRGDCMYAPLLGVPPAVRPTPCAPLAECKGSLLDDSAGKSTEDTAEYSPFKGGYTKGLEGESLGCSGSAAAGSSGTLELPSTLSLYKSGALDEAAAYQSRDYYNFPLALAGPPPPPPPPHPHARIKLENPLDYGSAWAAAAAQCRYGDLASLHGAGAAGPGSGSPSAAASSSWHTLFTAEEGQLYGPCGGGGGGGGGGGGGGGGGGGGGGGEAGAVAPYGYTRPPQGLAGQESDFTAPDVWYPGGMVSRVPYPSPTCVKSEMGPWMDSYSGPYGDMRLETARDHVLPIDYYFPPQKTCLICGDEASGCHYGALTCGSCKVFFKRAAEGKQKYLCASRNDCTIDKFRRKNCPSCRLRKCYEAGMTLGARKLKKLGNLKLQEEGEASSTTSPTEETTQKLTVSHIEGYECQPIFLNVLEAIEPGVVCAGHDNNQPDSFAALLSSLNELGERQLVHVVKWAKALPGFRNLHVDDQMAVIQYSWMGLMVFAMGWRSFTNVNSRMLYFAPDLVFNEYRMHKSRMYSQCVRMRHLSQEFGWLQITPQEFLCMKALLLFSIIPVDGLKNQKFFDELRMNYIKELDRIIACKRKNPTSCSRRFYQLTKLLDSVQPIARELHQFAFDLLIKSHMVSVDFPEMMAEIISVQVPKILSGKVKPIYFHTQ
Assay type: cell-based
Method: The PSA (6.1 kb)-luciferase reporter contains functional AREs (androgen response elements) to which AR binds in response to androgen to induce luciferase activity. LNCaP cells were transiently transfected with the PSA (6.1 kb)-luciferase reporter for 24 h, and then pretreated with vehicle (DMSO) or indicated concentration of representative compounds for one hour prior to the addition of synthetic androgen, R1881 (1 nM). After 24 h of incubation with R1881, the cells were harvested, and relative luciferase activities were determined (FIG. 1). To determine the IC50, treatments were normalized to vehicle control activity induced by R1881 (Table 2).
Luciferase Assay A: Cells were lysed using Passive Lysis Buffer (Promega) and then collected into V-bottom 96-well tissue culture plates. Lysates were centrifuged at 4° C. for 5 minutes at 3000 rpm. To measure luminescence of LNCaP cell lysates the Firefly Luciferase Assay System (Promega) was employed, according to manufacturer's protocol. Relative luminescence units (RLU) in cell lysates were detected for 10 seconds using Promega GloMax-Multi Detection Luminometer (Promega). Values were normalized to protein content. GraphPad Prism graphing software was used to calculate IC50 values. Luciferase Assay A was run for all compounds in Table 2 unless otherwise noted below.
Statistical analyses were performed using GraphPad Prism (Version 6.01 for Windows; La Jolla, CA, USA). Comparisons between treatment and control groups were compared using Two-Way ANOVA with post-hoc Dunnett's and Tukey's tests. Differences were considered statistically significant at P values less than 0.05.

Compound	IC50 [nM]
CC(C)(c1ccc(OCc2ccnc(NS(C)(=O)=O)n2)cc1)c1cnc(OCCCl)c(C#N)c1 [Compound A170]	> 2000
COC1CN(c2c(Cl)cc(C(C)(C)c3ccc(OCc4ccnc(NS(C)(=O)=O)n4)cc3)cc2C#N)C1 [Compound A167]	> 2000
CC(C)(c1ccc(OCc2ccnc(NS(=O)(=O)c3cccnc3)n2)cc1)c1cc(Cl)c(OCCCl)c(C#N)c1 [Compound A109]	> 2000
CS(=O)(=O)NC1CN(CCc2ccc(Oc3cc(Cl)c(OCCCl)c(C#N)c3)cc2)C1 [Compound A7]	> 2000
CS(=O)(=O)NC1CCN(CCc2ccc(Oc3cc(Cl)c(OCCCl)c(C#N)c3)cc2)CC1 [Compound A30]	> 2000
CC(C)(c1ccc(N2CCN(C3CC(NS(C)(=O)=O)C3)CC2)cc1)c1cc(Cl)c(OCCCl)c(C#N)c1 (stereo not shown) [Compound A48]	> 2000
CC(C)(c1cc(Cl)c(OCCCl)c(C#N)c1)c1ccc(OCc2ccnc(NS(C)(=O)=O)n2)c(CN)c1 [Compound A111]	> 2000
CC(C)(c1ccc(OCc2ccnc(NS(C)(=O)=O)n2)cc1)c1cc(Cl)c(CN2CCOCC2)c(Cl)c1 [Compound A159]	> 2000
CC(C)(c1ccc(OC[C@]2(F)C[C@H](NS(C)(=O)=O)C2)cc1)c1cc(Cl)c(OCCCl)c(C#N)c1 [Compound A26]	> 2000
CC(C)(c1ccc(OCc2cc(N3CCNCC3)nc(NS(C)(=O)=O)n2)cc1)c1cc(Cl)c(OCCCl)c(C#N)c1 [Compound A116]	> 2000
CC(C)(c1cc(Cl)c(OCCCl)c(C#N)c1)c1ccc(OCc2ccnc(NS(C)(=O)=O)n2)c(CO)c1 [Compound A119]	> 2000
CS(=O)(=O)Nc1cnc2cc(-c3ccc(Oc4cc(Cl)c(OCCCl)c(C#N)c4)cn3)ccc2n1 [Compound A23]	> 2000
CS(=O)(=O)NC1CCN(Cc2ccc(Oc3cc(Cl)c(OCCCl)c(C#N)c3)cc2)CC1(F)F (stereo not shown) [Compound A35]	> 2000
CC(C)(c1ccc(N2CCN(CCNS(C)(=O)=O)CC2)cc1)c1cc(Cl)c(OCCCl)c(C#N)c1 [Compound A13]	> 2000
CC(C)(c1ccc(OCc2ccnc(NS(C)(=O)=O)n2)cc1)c1cc(Cl)c(OCCNS(C)(=O)=O)c(C#N)c1 [Compound A183]	> 2000
CC(C)(c1ccc(OCc2ccnc(NS(C)(=O)=O)n2)cc1)c1cc(Cl)c(N2CCC(F)(F)CC2)c(C#N)c1 [Compound A132]	> 2000
CC(C)(c1ccc(CCN2CCC(NS(C)(=O)=O)CC2)cc1)c1cc(Cl)c(OCCCl)c(C#N)c1 [Compound A29]	> 2000
CC(C)(c1ccc(OCc2ccnc(NS(C)(=O)=O)n2)cc1)c1cc(Cl)c(CN2CCCC(F)(F)C2)c(Cl)c1 [Compound A160]	> 2000
CS(=O)(=O)Nc1nccc(COc2ccc(C(=O)c3cc(Cl)c(OCCCl)c(C#N)c3)cc2)n1 [Compound A128]	> 2000
CC(C)(c1ccc(CCN2CC(NS(C)(=O)=O)C2)cc1)c1cc(Cl)c(OCCCl)c(C#N)c1 [Compound A20]	> 2000
CC(C)(c1ccc(-c2ccc(N3CCC(NS(C)(=O)=O)CC3)nc2)cc1)c1cc(Cl)c(OCCCl)c(C#N)c1 [Compound A58]	> 2000
Cn1cnc(S(=O)(=O)Nc2nccc(COc3ccc(C(C)(C)c4cc(Cl)c(OCCCl)c(C#N)c4)cc3)n2)c1 [Compound A107]	> 2000

Next, values leading:

IC50 [nM]	Compound
> 2000	CS(=O)(=O)Nc1nccc2cc(-c3ccc(Oc4cc(Cl)c(OCCCl)c(C#N)c4)cc3)ccc12 [Compound A65]
< 500	CS(=O)(=O)NC1CN(c2ncc(-c3ccc(N(CC(F)(F)F)c4cc(Cl)c(OCCCl)c(C#N)c4)cc3)cn2)C1 [Compound A68]
> 2000	CC(C)(C)OC(=O)N1CCN(c2cc(COc3ccc(C(C)(C)c4cc(Cl)c(OCCCl)c(C#N)c4)cc3)nc(NS(C)(=O)=O)n2)CC1 [Compound A117]
> 2000	CS(=O)(=O)Nc1cnc2cc(-c3ncc(Oc4cc(Cl)c(OCCCl)c(C#N)c4)cn3)ccc2n1 [Compound A123]
> 2000	CC(C)(c1ccc(OCc2ccnc(NS(C)(=O)=O)n2)cc1)c1cc(Cl)c(OC2CN(CC(F)(F)F)C2)c(C#N)c1 [Compound A165]
> 2000	CC(C)(c1ccc(-c2ccnc(N3CC(NS(C)(=O)=O)C3)n2)cc1)c1cc(Cl)c(OCCCl)c(C#N)c1 [Compound A40]
500 to 2000	CC(C)(C)OC(=O)N1CCC(c2cc(COc3ccc(C(C)(C)c4cc(Cl)c(OCCCl)c(C#N)c4)cc3)nc(NS(C)(=O)=O)n2)CC1 [Compound A115]
500 to 2000	CC(C)(c1ccc(OC[C@]2(F)C[C@@H](NS(C)(=O)=O)C2)cc1)c1cc(Cl)c(OCCCl)c(C#N)c1 [Compound A39]
500 to 2000	CC(C)(c1ccc(OCc2ccnc(-n3cnc(S(N)(=O)=O)n3)n2)cc1)c1cc(Cl)c(OCCCl)c(C#N)c1 [Compound A108]
500 to 2000	CC(C)(c1ccc(-c2cnc(NC3CN(S(C)(=O)=O)C3)nc2)cc1)c1cc(Cl)c(OCCCl)c(C#N)c1 [Compound A76]
500 to 2000	CC(C)(c1ccc(OCc2ccnc(NS(C)(=O)=O)n2)cc1)c1cc(Cl)c(OC2CC2)c(C#N)c1 [Compound A62]
500 to 2000	CC(C)(c1ccc(OCc2ccnc(NS(C)(=O)=O)n2)cc1)c1cc(Cl)c(OC2CCC2)c(C#N)c1 [Compound A52]
500 to 2000	CC(C)(c1ccc(OCc2ccnc(NS(C)(=O)=O)n2)cc1)c1cc(Cl)c(OCC2CC2)c(C#N)c1 [Compound A147]
< 500	CC(C)(c1ccc(-c2ccc(NC3CN(S(C)(=O)=O)C3)nc2)cc1)c1cc(Cl)c(OCCCl)c(C#N)c1 [Compound A53]
500 to 2000	CC(C)(c1ccc(-c2ncc(CNS(C)(=O)=O)cn2)cc1)c1cc(Cl)c(OCCCl)c(C#N)c1 [Compound A5]
500 to 2000	CC(C)(c1ccc(OC[C@H]2CC[C@H](NS(C)(=O)=O)CC2)cc1)c1cc(Cl)c(OCCCl)c(C#N)c1 [Compound A63]
500 to 2000	CC(C)(c1ccc(-c2cnc(N3CCC34CN(S(C)(=O)=O)C4)nc2)cc1)c1cc(Cl)c(OCCCl)c(C#N)c1 [Compound A138]
500 to 2000	CC(C)(c1ccc(OCc2cccc(NS(C)(=O)=O)c2F)cc1)c1cc(Cl)c(OCCCl)c(C#N)c1 [Compound A130]
500 to 2000	CC(C)(c1ccc(-c2cnc(CNS(C)(=O)=O)nc2)cc1)c1cc(Cl)c(OCCCl)c(C#N)c1 [Compound A4]
500 to 2000	CC(C)(c1ccc(Oc2cnc(CNS(C)(=O)=O)nc2)cc1)c1cc(Cl)c(OCCCl)c(C#N)c1 [Compound A86]
500 to 2000	CS(=O)(=O)N1CC2(CC(Oc3ccc(Oc4cc(Cl)c(OCCCl)c(C#N)c4)cc3)C2)C1 [Compound A137]
500 to 2000	COc1c(Cl)cc(N(CC(F)(F)F)c2ccc(-c3ccc4nc(NS(C)(=O)=O)cnc4c3)cc2)cc1C#N [Compound A67]
500 to 2000	C=Cc1c(Cl)cc(C(C)(C)c2ccc(OCc3ccnc(NS(C)(=O)=O)n3)cc2)cc1C#N [Compound A179]
500 to 2000	CC(C)(c1ccc(-c2ccc(N3CCN(S(C)(=O)=O)CC3)nc2)cc1)c1cc(Cl)c(OCCCl)c(C#N)c1 [Compound A60]
500 to 2000	CC(C)(c1ccc(N2CCOC(CNS(C)(=O)=O)C2)cc1)c1cc(Cl)c(OCCCl)c(C#N)c1 (stereo not shown) [Compound A14]
500 to 2000	Cn1ccc(S(=O)(=O)Nc2nccc(COc3ccc(C(C)(C)c4cc(Cl)c(OCCCl)c(C#N)c4)cc3)n2)n1 [Compound A105]
500 to 2000	CC(C)(c1ccc(-n2cc(N3CC(NS(C)(=O)=O)C3)cn2)cc1)c1cc(Cl)c(OCCCl)c(C#N)c1 [Compound A45]
